# In paper PMC4828312 (Journal of neurochemistry, 2016):
# Key:
# cortical neurons [1] = experiment: Length of neuronal processes; assay type: cell-based, rat; conditions: gp120s (all 5 nM) in combination with Helix-A peptide or Helix-A nano (5 µM each), 24 hr; three independent experiments
# cortical neurons [2] = experiment: LDH release; assay type: cell-based, rat; conditions: gp120s in combination with Helix-A nano or Helix-A peptide, 24 hr; three separate experiments; Fig. 6B
# primary cortical neurons = experiment: Cell viability, Hoechst/PI co-staining; assay type: cell-based, rat; conditions: gp120s in combination with Helix-A nano or Helix-A peptide, 24 hr; three separate experiments, n=200 neurons each group; Fig. 6A
# [3] = target: assembled MTs (containing ~25% of TUBB3); experiment: Surface plasmon resonance; assay type: binding, Porcine; conditions: peptides injected at 10 nM – 500 µM; three independent experiments; Fig. 2D
# tubulin dimer = experiment: Surface plasmon resonance; assay type: binding, Porcine; conditions: peptides injected at 10 nM – 500 µM; three independent experiments; Fig. 2D
# recombinant TUBB3 = recombinant TUBB3 (Homo sapiens, UniProt Q13509); experiment: Surface plasmon resonance; assay type: binding; conditions: peptides injected at 10 nM – 500 µM; three independent experiments; Fig. 2D
# recombinant TUBB3, sequence (Q13509 whole entry): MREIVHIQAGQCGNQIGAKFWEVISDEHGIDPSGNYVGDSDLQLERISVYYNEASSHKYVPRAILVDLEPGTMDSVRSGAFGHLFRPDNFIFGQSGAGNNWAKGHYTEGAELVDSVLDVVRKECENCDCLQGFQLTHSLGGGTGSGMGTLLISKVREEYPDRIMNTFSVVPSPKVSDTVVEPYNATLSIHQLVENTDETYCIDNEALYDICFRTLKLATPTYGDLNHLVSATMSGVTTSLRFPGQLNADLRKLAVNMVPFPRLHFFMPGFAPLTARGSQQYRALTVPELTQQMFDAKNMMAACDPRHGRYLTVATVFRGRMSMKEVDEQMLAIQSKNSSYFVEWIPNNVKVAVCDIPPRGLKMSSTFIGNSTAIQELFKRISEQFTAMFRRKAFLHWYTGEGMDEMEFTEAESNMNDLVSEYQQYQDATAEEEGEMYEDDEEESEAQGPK
# CXCR4 = conditions: cited from earlier work
compound,measurement,setting,value
NDMVEQMHEDIISLWDQSLK [Helix-A],Prevention of gp120-mediated neurite pruning,cortical neurons [1],but not Helix-A peptide prevented the gp120-mediated neurite pruning
same,"Prevention of gp120-induced neuronal loss, LDH release",cortical neurons [2],but not Helix-A peptide abolished all neurotoxic effects of gp120
same,"Prevention of gp120-induced neuronal loss, Hoechst/PI staining",primary cortical neurons,but not Helix-A peptide abolished all neurotoxic effects of gp120
same,Binding of peptide to assembled MTs by SPR,[3],in the higher micromole range
same,Binding of peptide to tubulin dimer by SPR,tubulin dimer,in the higher micromole range
RAKWNNTLKQIASK [Helix-B],Binding of peptide to TUBB3 by SPR,recombinant TUBB3,but not Helix-B peptide binds to TUBB3
c1cc(CN2CCCNCCNCCCNCC2)ccc1CN1CCCNCCNCCCNCC1 [AMD3100],Internalization of gp120,CXCR4; ref Bachis et al. 2003,bloked
same,gp120 toxicity,"CXCR4; ref Melli et al. 2006, Meucci et al. 1998",prevents gp120 toxicity
